The values below come from US4330553A, “7-Oxo-PGI2 -derivatives and process for the preparation thereof and pharmaceutical compositions containing same” (Chinoin Gyogyszer es Vegyeszeti Termekek Gyara R.T., priority 1979, dated 1982).

Data set [1] has as its system thrombocytes. Kind of data set: Thrombocyte aggregation inhibiting activity in human plasma enriched with thrombocytes (aggregation induced with ADP or collagen). The data set is classed as cell-based. An excerpt:
ID50 concentrations in case of aggregation generated with ADP and collagen resp. in plasma enriched with thrombocytes (PRB) isolated from human blood are as disclosed hereinbelow. As a comparison ID50 concentration values obtained with PGI2 sodium salt under the same test conditions are given.

The conditions of data set [2]: acidic or neutral medium; decomposes to 6-keto-PGF1α; cited from earlier work.
The mark [3] stands for this setting: aggregation induced with ADP, read-out: ID50, thrombocyte aggregation inhibiting activity, ADP.
Where [4] appears, read: aggregation induced with collagen, read-out: ID50, thrombocyte aggregation inhibiting activity, collagen.

Each structure is given as a SMILES string. Converted amounts (≈) assume the structure as drawn. Structures can show the parent of a compound that is named as a salt. Where two headings read alike, the source gives them in different places.

As to `CCCCC[C@H](O)/C=C/[C@@H]1[C@H]2C/C(=C/CCCC(=O)O)O[C@H]2C[C@H]1O` [Sodium salt of PGI2, reference compound], the IC50 in data set [1] (setting [3]) and in data set [1] (setting [4]) was 0.001 to 0.002 µg/mL in each case.

As for `CCCCC[C@H](O)/C=C/[C@@H]1[C@H]2C(=O)/C(=C/CCCC(=O)OC)O[C@H]2C[C@H]1O` [7-Oxo-PGI2-methyl ester, 7-Oxo-PGI2-methylester], the IC50 was 0.1 to 0.2 µg/mL (≈ 0.263 to 0.526 µM) in data set [1] (setting [3]) and 0.05 µg/mL (≈ 0.131 µM) in data set [1] (setting [4]).

Take `CCCCC[C@H](O)/C=C/[C@@H]1[C@H]2C(=O)/C(=C/CCCC(=O)O)O[C@H]2C[C@H]1O` [Sodium salt of 7-oxo-PGI2]: the IC50 in data set [1] (setting [3]) came out at 0.015 µg/mL; in data set [1] (setting [4]) it was 0.08 µg/mL.

As for `CCCCC[C@H](O)/C=C/[C@@H]1[C@H]2C/C(=C/CCCC(=O)O)O[C@H]2C[C@H]1O` [PGI2], in data set [2], the “stability of PGI2” value is on record as “immediately decomposes”.
